Assay results from patent US20230398130A1, “METHODS AND COMPOSITIONS FOR DIFFERENTIATING STEM CELLS” (Massachusetts Institute of Technology, priority 2020, published 2023).

Experiments:
ISC-enriched organoids [1] = test: Primary screen, 384-well 2.5-D organoid differentiation (ENR+CD, 6 days): basal lysozyme secretion (LYZ.NS); type: cell-based, murine; conditions: for Dose.FC.LYZ.NS: FC vs plate median; for Z.LYZ.NS: standard z score of FC
Description: (§1) High-throughput screening.

ISC-enriched organoids [2] = test: Primary screen, 384-well 2.5-D organoid differentiation (ENR+CD, 6 days, Target Selective Inhibitor Library, vs whole-plate median): ATP (CellTiter-Glo 3D, CTG); conditions: for Dose.FC.CTG: FC vs plate median; for Z.CTG: standard z score of FC
ISC-enriched organoids [3] = test: Primary screen, 384-well 2.5-D organoid differentiation (ENR+CD, 6 days): carbachol-induced lysozyme secretion (LYZ.S); type: cell-based, murine; conditions: for Dose.FC.LYZ.S: FC vs plate median
Description: as §1

[4] = dose 0.08 uM (1st of 4 lines per treatment; dose not printed in this part)
[5] = dose 0.40 uM (2nd of 4 lines per treatment; dose not printed in this part)
[6] = dose 2.00 uM (3rd of 4 lines per treatment; dose not printed in this part)
[7] = dose 10.00 uM (4th of 4 lines per treatment; dose not printed in this part)
[8] = primary screen, dose 0.08 uM, ENR+CD 6 days
[9] = primary screen, dose 0.40 uM, ENR+CD 6 days
[10] = primary screen, dose 2.00 uM, ENR+CD 6 days
[11] = primary screen, dose 10.00 uM, ENR+CD 6 days

In the case of (−)-MK 801 Maleate, the “SSMD.LYZ.NS_Rep (strictly standardized mean difference)” value (ISC-enriched organoids [1]; [4]) is reported as 0.070, the “SSMD.LYZ.NS_Rep (strictly standardized mean difference)” value (ISC-enriched organoids [1]; [5]) is reported as −0.550 and the “SSMD.LYZ.NS_Rep (strictly standardized mean difference)” value (ISC-enriched organoids [1]; [6]) is reported as −1.315. For the same compound, the “SSMD.LYZ.NS_Rep (strictly standardized mean difference)” value (ISC-enriched organoids [1]; [7]) was −1.708, the Dose.FC.LYZ.NS (ISC-enriched organoids [1]; [8]) was 0.008 log 2 fold change and the Z.LYZ.NS (ISC-enriched organoids [1]; primary screen, dose 0.08 uM) was 0.072. For the same compound, the Dose.FC.LYZ.NS (ISC-enriched organoids [1]; [9]) was −0.099 log 2 fold change, the Z.LYZ.NS (ISC-enriched organoids [1]; primary screen, dose 0.40 uM) was −0.864 and the Dose.FC.LYZ.NS (ISC-enriched organoids [1]; [10]) was −0.256 log 2 fold change. For the same compound, the Z.LYZ.NS (ISC-enriched organoids [1]; primary screen, dose 2.00 uM) was −2.227, the Dose.FC.LYZ.NS (ISC-enriched organoids [1]; [11]) was −0.259 log 2 fold change and the Z.LYZ.NS (ISC-enriched organoids [1]; primary screen, dose 10.00 uM) was −2.255. For the same compound, the “SSMD.CTG_Rep (strictly standardized mean difference)” value (ISC-enriched organoids [2]; [4]) was 0.442, the “SSMD.CTG_Rep (strictly standardized mean difference)” value (ISC-enriched organoids [2]; [5]) was −1.342 and the “SSMD.CTG_Rep (strictly standardized mean difference)” value (ISC-enriched organoids [2]; [6]) was −1.102. The “SSMD.CTG_Rep (strictly standardized mean difference)” value (ISC-enriched organoids [2]; [7]) was −1.696, the Dose.FC.CTG (ISC-enriched organoids [2]; [8]) was 0.127 log 2 fold change and the Z.CTG (ISC-enriched organoids [2]; primary screen, dose 0.08 uM) was 0.303. It also gave a Dose.FC.CTG (ISC-enriched organoids [2]; [9]) of −0.377 log 2 fold change, a Z.CTG (ISC-enriched organoids [2]; primary screen, dose 0.40 uM) of −0.899 and a Dose.FC.CTG (ISC-enriched organoids [2]; [10]) of −0.702 log 2 fold change. It also gave a Z.CTG (ISC-enriched organoids [2]; primary screen, dose 2.00 uM) of −1.677, a Dose.FC.CTG (ISC-enriched organoids [2]; [11]) of −0.936 log 2 fold change and a Z.CTG (ISC-enriched organoids [2]; primary screen, dose 10.00 uM) of −2.236. The “SSMD.LYZ.S_Rep (strictly standardized mean difference)” value (ISC-enriched organoids [3]; [4]) was 0.116, the “Z.LYZ.S (standard z score)” value (ISC-enriched organoids [3]; [4]) was 0.099 and the “SSMD.LYZ.S_Rep (strictly standardized mean difference)” value (ISC-enriched organoids [3]; [5]) was −0.976. For the same compound, the “Z.LYZ.S (standard z score)” value (ISC-enriched organoids [3]; [5]) was −1.159, the “SSMD.LYZ.S_Rep (strictly standardized mean difference)” value (ISC-enriched organoids [3]; [6]) was −1.187 and the “Z.LYZ.S (standard z score)” value (ISC-enriched organoids [3]; [6]) was −2.160. The “SSMD.LYZ.S_Rep (strictly standardized mean difference)” value (ISC-enriched organoids [3]; [7]) was −1.768, the “Z.LYZ.S (standard z score)” value (ISC-enriched organoids [3]; [7]) was −2.604 and the Dose.FC.LYZ.S (ISC-enriched organoids [3]; [8]) was 0.015 log 2 fold change. It also gave a Dose.FC.LYZ.S (ISC-enriched organoids [3]; [9]) of −0.179 log 2 fold change, a Dose.FC.LYZ.S (ISC-enriched organoids [3]; [10]) of −0.334 log 2 fold change and a Dose.FC.LYZ.S (ISC-enriched organoids [3]; [11]) of −0.403 log 2 fold change.
With Cn1cc(C2=C(c3cn(C4CCN(Cc5ccccn5)CC4)c4ccccc34)C(=O)NC2=O)c2ccccc21 [Enzastaurin (LY317615)] the Dose.FC.LYZ.NS (ISC-enriched organoids [1]; Dose 0.08 uM, ENR+CD, 6 days) was 0.085 log 2 fold change, the Z.LYZ.NS (ISC-enriched organoids [1]; Dose 0.08 uM) was 0.744 and the Dose.FC.LYZ.NS (ISC-enriched organoids [1]; Dose 0.40 uM, ENR+CD, 6 days) was 0.131 log 2 fold change. It also gave a Z.LYZ.NS (ISC-enriched organoids [1]; Dose 0.40 uM) of 1.143, a Dose.FC.LYZ.NS (ISC-enriched organoids [1]; Dose 2.00 uM, ENR+CD, 6 days) of 0.053 log 2 fold change and a Z.LYZ.NS (ISC-enriched organoids [1]; Dose 2.00 uM) of 0.458. The Dose.FC.LYZ.NS (ISC-enriched organoids [1]; Dose 10.00 uM, ENR+CD, 6 days) was −0.116 log 2 fold change, the Z.LYZ.NS (ISC-enriched organoids [1]; Dose 10.00 uM) was −1.012 and the Dose.FC.CTG (ISC-enriched organoids [2]; Dose 0.08 uM, ENR+CD, 6 days) was 0.236 log 2 fold change. It also gave a Z.CTG (ISC-enriched organoids [2]; Dose 0.08 uM) of 0.565, a Dose.FC.CTG (ISC-enriched organoids [2]; Dose 0.40 uM, ENR+CD, 6 days) of 0.475 log 2 fold change and a Z.CTG (ISC-enriched organoids [2]; Dose 0.40 uM) of 1.135. For the same compound, the Dose.FC.CTG (ISC-enriched organoids [2]; Dose 2.00 uM, ENR+CD, 6 days) was 0.251 log 2 fold change, the Z.CTG (ISC-enriched organoids [2]; Dose 2.00 uM) was 0.600 and the Dose.FC.CTG (ISC-enriched organoids [2]; Dose 10.00 uM, ENR+CD, 6 days) was −0.081 log 2 fold change. For the same compound, the Z.CTG (ISC-enriched organoids [2]; Dose 10.00 uM) was −0.194, the Dose.FC.LYZ.S (ISC-enriched organoids [3]; Dose 0.08 uM, ENR+CD, 6 days) was 0.109 log 2 fold change and the Dose.FC.LYZ.S (ISC-enriched organoids [3]; Dose 0.40 uM, ENR+CD, 6 days) was 0.251 log 2 fold change. For the same compound, the Dose.FC.LYZ.S (ISC-enriched organoids [3]; Dose 2.00 uM, ENR+CD, 6 days) was 0.053 log 2 fold change and the Dose.FC.LYZ.S (ISC-enriched organoids [3]; Dose 10.00 uM, ENR+CD, 6 days) was −0.226 log 2 fold change.
For CC(=O)c1cc([N+](=O)[O-])c(Sc2ccc(F)cc2F)s1 [P22077], the Dose.FC.LYZ.NS (ISC-enriched organoids [1]; Dose 0.08 uM, primary screen) was 0.039 log 2 fold change, the Z.LYZ.NS (ISC-enriched organoids [1]; Dose 0.08 uM) was 0.338 and the Dose.FC.LYZ.NS (ISC-enriched organoids [1]; Dose 0.40 uM, primary screen) was −0.005 log 2 fold change. It also gave a Z.LYZ.NS (ISC-enriched organoids [1]; Dose 0.40 uM) of −0.041, a Dose.FC.LYZ.NS (ISC-enriched organoids [1]; Dose 2.00 uM, primary screen) of 0.028 log 2 fold change and a Z.LYZ.NS (ISC-enriched organoids [1]; Dose 2.00 uM) of 0.248. It also gave a Dose.FC.LYZ.NS (ISC-enriched organoids [1]; Dose 10.00 uM, primary screen) of −0.056 log 2 fold change, a Z.LYZ.NS (ISC-enriched organoids [1]; Dose 10.00 uM) of −0.487 and a Dose.FC.CTG (ISC-enriched organoids [2]; Dose 0.08 uM, primary screen) of −0.216 log 2 fold change. For the same compound, the Z.CTG (ISC-enriched organoids [2]; Dose 0.08 uM) was −0.516, the Dose.FC.CTG (ISC-enriched organoids [2]; Dose 0.40 uM, primary screen) was 0.049 log 2 fold change and the Z.CTG (ISC-enriched organoids [2]; Dose 0.40 uM) was 0.117. For the same compound, the Dose.FC.CTG (ISC-enriched organoids [2]; Dose 2.00 uM, primary screen) was −0.134 log 2 fold change, the Z.CTG (ISC-enriched organoids [2]; Dose 2.00 uM) was −0.320 and the Dose.FC.CTG (ISC-enriched organoids [2]; Dose 10.00 uM, primary screen) was −0.130 log 2 fold change. For the same compound, the Z.CTG (ISC-enriched organoids [2]; Dose 10.00 uM) was −0.311, the Dose.FC.LYZ.S (ISC-enriched organoids [3]; Dose 0.08 uM, primary screen) was −0.182 log 2 fold change and the Dose.FC.LYZ.S (ISC-enriched organoids [3]; Dose 0.40 uM, primary screen) was 0.065 log 2 fold change. It also gave a Dose.FC.LYZ.S (ISC-enriched organoids [3]; Dose 2.00 uM, primary screen) of −0.007 log 2 fold change and a Dose.FC.LYZ.S (ISC-enriched organoids [3]; Dose 10.00 uM, primary screen) of −0.063 log 2 fold change.
